“And” between values parts separate entries of the source, which are not always exact repeats. Equal entries are not always repeated.
System: patients with Amyotrophic Lateral Sclerosis (ALS)
Test: Phase 2 placebo controlled, randomized, double blind 12-week study, ALSFRS-R total score
Type: in vivo, human
Description: Efficacy, Safety, Tolerability, Pharmacokinetics and Pharmacodynamics of Formula (I) in Patients with Amyotrophic Lateral Sclerosis • Protocol Title: A phase 2, proof-of-concept, placebo controlled, randomized, double blind study of compound of formula (I) to evaluate the efficacy, safety, tolerability, pharmacokinetics and pharmacodynamics in patients with Amyotrophic Lateral Sclerosis (ALS). • Study design: A phase 2, proof-of-concept, placebo controlled, randomized, double blind, 12-week study of compound of formula (I) to evaluate the efficacy, safety, pharmacokinetics, and pharmacodynamics in patients with Amyotrophic Lateral Sclerosis (ALS). • Study population: Male or female patients aged between 18-80 years (both inclusive at screening) with diagnosis of Amyotrophic Lateral Sclerosis who meet eligibility criteria • Number of Patients: Approximately 24 patients (06 patients in each arm) are enrolled. • Duration of Patient Participation: 114±5 Days (Including 28 days of screening)
• To measure the efficacy of the treatment using the slope of progression with the revised Amyotrophic Lateral Sclerosis Functional Rating Scale (ALSFRS-R)
• Change from baseline in the ALSFRS-R total score [Time Frame: From baseline to Week 12] […]

## CN1CCC[C@]1(C)/C=C/S(=O)(=O)NC(=O)Nc1c2c(cc3c1CCC3)CCC2 [formula (I)]
Baseline to Week 12, one line per patient, arm not given
  Change from baseline in the ALSFRS-R total score: −8 points and −1 points and 4 points and 0 points and 1 points and −3 points
Over 12 weeks, ALS patients
  ALSFRS-R score, result in words: stable and improved ALSFRS-R score in some patients
